One assay has as its system collagénase pancréatique. As to the kind of experiment: Collagenase inhibition (agarose gel diffusion, enzyme and substance together in the well). It is filed as biochemical. The following applies: 15 h at 37°C. The procedure:
(§1) On évalue l'action enzymatique en mesurant le diamètre des zones d'hydrolyse du collagène fibreux. Le groupe chlorophylle-chlorophyllide est le plus actif, ce qui suggère que la présence de magnésium dans la structure a une grande importance. * Effet d'inhibition de la collagénase : - Mise en évidence : On répartit dans quatre boîtes de Pétri de 8 cm de diamètre 20 ml d'une solution à 1 % d'agarose dans du tampon Tris pH 8,8, contenant en suspension 20 mg de collagène fibreux insoluble. Cette répartition se fait à 45°C. Après solidification de l'agarose, on perfore 5 puits de 3 mm de diamètre dans le gel grâce à un emporte-pièce. Dans ces 5 puits, on place 25 µl d'une solution de collagénase pancréatique dans du tampon Tris pH 8,8 à des concentrations de : 10 mg/ml (3800 U/ml) et 25 µl d'une solution de la substance à tester dans le même tampon à une concentration de 4 %, 3 %, 2 %, 1 % et 0 %. Comme la plupart des produits à doser ne sont pas solubles dans le tampon, on part d'une solution mère dans du diméthylsulfoxyde. Les boîtes de Pétri sont incubées 15 heures à 37°C, puis le gel est coloré par une solution à 0,25 % d'acide picrique à 0,25 % pendant 3 min, puis une solution de Rouge Sirius à 0,1 % pendant 5 min. L'excès de coloration est éliminé par lavage à l'eau. - Résultats : […]

For assay [1], the system named is fibroblastes humains MRC5. As to the kind of experiment: Total protein synthesis by fibroblasts in culture (Coomassie blue, OD 595 nm). Format: cell-based. The following applies: 100 µl per well, MRC5, 28th passage, medium sampled after 48, 72, 96 and 120 h (time not given); for activation at 50 µg/mL: Homo sapiens, read-out: augmentation de la synthèse protéique par rapport au témoin; for augmentation de la synthèse protéique par rapport au témoin: 50 µg/ml. The source says: Dans ce test, qui est un test relatif à une inhibition enzymatique vraie, puisque le substrat est artificiel et de structure assez éloignée des substrats naturels de l'enzyme, on constate que les molécules les plus actives en tant qu'inhibiteurs, sont celles dépourvues de radical phytile; la présence du magnésium n'apparaît pas comme essentielle, pour cette fonction particulière, d'où l'intérêt de compositions comprenant plusieurs des substances actives définies ci-dessus. * Effet des substances décrites sur la synthèse des protéines totales par des fibroblastes en culture (restructuration) : - Mise en évidence : Une étude de cytotoxicité est réalisée au préalable pour déterminer les concentrations maximales de test des différentes substances concernées. Cellules utilisées : fibroblastes humains MRC5, au 28ème passage. Les cellules sont ensemencées sur une plaque à 96 puits à raison de 2.10^5 cellules par puits environ et mises en culture dans du milieu minimum de Eagle (MEM) additionné de 1 % de glutamine 200 mM, 1 % de solution de vitamines, 100 U/ml de pénicilline, 100 U/ml de streptomycine et 2 % de sérum de veau foetal. La solution à tester est ajoutée à raison de 100 µl par puits, à la concentration de 50 µg/ml. Les cellules sont incubées à 37°C sous 5 % d'atmosphères de CO2. On prélève le milieu de culture après 48, 72, 96 et 120 heures de culture. Les protéines totales synthétisées sont déterminées après coloration des surnageants par le bleu de Coomassie et mesure de la D.O. à 595 nm. L'augmentation de la synthèse protéique est mesurée par rapport au témoin (solvant de la substance à tester). - Résultats : […]

In a further assay the target is élastase pancréatique (Sus scrofa, UniProt P00772). As to the kind of experiment: Pancreatic elastase inhibition on synthetic substrate N succinyl N ala-ala-ala-p nitroanilide. It is filed as biochemical. The following applies: 0,5 ml of 0,1 % test solution in DMSO à 50 %, 3 ml total; pH 7,6; OD 410 nm over 3 min. An excerpt:
Dans ce test, les substances les plus performantes sont les mêmes que dans le test précédent (chlorophylle-chlorophyllide); de plus, ces substances présentent un effet de renforcement de la résistance du collagène contre les effets de la collagénase, alors que l'enzyme elle-même est peu atteinte par ces substances. * Inhibition de l'élastase pancréatique : - Mise en évidence : L'activité de l'élastase pancréatique est déterminée sur un substrat synthétique. On constate que les produits décrits ci-dessus ont un effet sur cette enzyme alors que le substrat est un dérivé de peptide de faible poids moléculaire : le N succinyl N ala-ala-ala-p nitroanilide. Solution substrat : solution du substrat ci-dessus à 1 % dans du tampon phosphate pH 7,6. Solution enzymatique : élastase pancréatique à (1000 U/ml) dans le tampon pH 7,6. Solvant DMSO à 50 % dans de l'eau distillée. Solution à tester : substance à tester en solution dans le solvant à 0,1 %. Dans un premier tube à essai (blanc), on place : • 2,2 ml de tampon pH 7,6 • 0,3 ml de solution enzymatique • 0,5 ml de solvant. Dans un deuxième tube à essai (essai), on place : • 1 ml de solution substrat • 1,2 ml de tampon pH 7,6 • 0,3 ml de solution enzymatique • 0,5 ml de solution à tester. Dans un troisième tube à essai, on place : • 1 ml de solution substrat • 1,2 ml de tampon pH 7,6 • 0,3 ml de solution enzymatique • 0,5 ml de solvant. On mesure la D.O. de la solution essai contre la solution blanc à 410 nm. On note la valeur toutes les 30 secondes pendant 3 minutes. On réalise la même mesure pour la solution témoin. L'activité de l'enzyme est définie par la vitesse d'augmentation de D.O. du témoin. L'activité de la solution inhibitrice à tester se définit comme une diminution relative de l'activité de l'enzyme. - Résultats : […]

A short description of assay [2]: Antiradical effect, chemical method (DPPH, OD 519 nm). The following applies: 0,15 ml of 2 % solution in methanol; 25°C, 5 min; pH 7; toluene extraction. As for the experimental part:
Dans ce test, on constate une relative homogénéité des actions des différentes substances, contrairement aux tests précédents; ici, c'est donc la structure commune qui doit jouer le rôle principal dans cette action. - Mise en évidence par la méthode chimique : Réactif : 1,1-diphényl-2-picrylhydrazyle : 2,5 mg dans 100 ml de méthanol. Solvant des substances antiradicalaires : méthanol. Solution antiradicalaire : 2 % dans du méthanol. Ce produit est un radical libre stable pouvant être dégradé par des substances antiradicalaires. On réalise un blanc pour le témoin et un blanc pour l'essai : Blanc témoin : tampon phosphate pH 7 : 1,5 ml méthanol : 3 ml Témoin : solution réactif : 3 ml tampon phosphate pH 7 : 1,5 ml Blanc essai : tampon phosphate pH 7 : 1,35 ml méthanol : 3,15 ml Essai : solution réactif : 3 ml tampon phosphate pH 7 : 1,35 ml solution d'antiradicalaire : 0,15 ml. On agite à 25°C pendant 5 min. Puis on extrait par 4 ml de toluène pendant 30 secondes. On filtre sur un papier séparateur de phases et on lit la D.O. de la solution de toluène à 519 nm contre la solution de toluène obtenue pour le blanc correspondant. On calcule le pourcentage de réactif disparu. - Résultats : […]
In general terms: The DPPH test is a chemical assay of radical scavenging.

In assay [3] the test system is collagène fibreux insoluble. As to the kind of experiment: Increase of the resistance of collagen to collagenase (agarose gel, diameter of hydrolysis zones). The settings on record: product in the gel at 0,025 %; collagénase pancréatique 10 mg/ml (3800 U/ml), 15 h at 37°C, Tris pH 8,8. Format: biochemical. The procedure: * Accroissement de la résistance du collagène aux effets de la collagénase : - Mise en évidence : On répartit dans quatre boîtes de Pétri de 8 cm de diamètre 20 ml d'une solution à 1 % d'agarose dans du tampon Tris pH 8,8, contenant en suspension 20 mg de collagène fibreux insoluble et 0, 0,1, 0,3 et 0,5 ml d'une solution à 5 % de produit à tester selon les boîtes, soient des concentrations de 0, 0,025 %, 0,075 %, 0,125 %. Comme la plupart des produits à tester ne sont pas solubles dans le tampon, on part d'une solution mère dans du diméthylsulfoxyde (DMSO). Cette répartition se fait à 45°C. Après solidification de l'agarose, on perfore 5 puits de 3 mm de diamètre dans le gel grâce à un emporte-pièce. Dans ces 5 puits, on place 50 µl d'une solution de collagénase pancréatique dans du tampon Tris pH 8,8 à une concentration de 10 mg/ml (3800 U/ml). Les boîtes de Pétri sont incubées 15 heures à 37°C, puis le gel est coloré par une solution à 0,25 % d'acide picrique à 0,25 % pendant 3 min, puis une solution de Rouge Sirius à 0,1 % pendant 5 min. L'excès de coloration est éliminé par lavage à l'eau. - Résultats :
as §1

Setting [4] is: 25 µl substance solution at 1 % with 25 µl collagénase 10 mg/ml in the well.
Setting [5] is: 25 µl substance solution at 2 % with 25 µl collagénase 10 mg/ml in the well.
Setting [6] is: 25 µl substance solution at 3 % with 25 µl collagénase 10 mg/ml in the well.
[7] abbreviates: 25 µl substance solution at 4 % with 25 µl collagénase 10 mg/ml in the well.

Chain of élastase pancréatique (P00772 27-266): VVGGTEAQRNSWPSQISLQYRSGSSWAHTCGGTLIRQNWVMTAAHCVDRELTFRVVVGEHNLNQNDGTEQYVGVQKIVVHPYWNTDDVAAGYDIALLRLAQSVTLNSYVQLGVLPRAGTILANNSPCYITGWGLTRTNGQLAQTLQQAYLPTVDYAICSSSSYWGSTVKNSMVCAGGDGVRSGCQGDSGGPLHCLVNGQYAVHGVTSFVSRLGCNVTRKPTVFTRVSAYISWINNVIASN

For `C=CC1=C(C)c2cc3[nH]c(c(CCC(=O)O)c3C)c3c4nc(cc5[nH]c(cc1n2)c(C)c5CC)C(C)=C4C(=O)C3C(=O)OC` (centres unmarked) [Phaéophorbide a, didéhydrophaéophorbide a], the “Effet d'inhibition de la collagénase” value in the assay with collagénase pancréatique (setting [4]) was 2%; in the assay with collagénase pancréatique (setting [5]) it was 2%; with collagénase pancréatique (setting [6]) it was 2%; in the assay with collagénase pancréatique (setting [7]), 6%. Also, the activation at 50 µg/mL in assay [1] worked out at 1%. In addition, the “Inhibition de l'élastase pancréatique (diminution relative de l'activité de l'enzyme)” value on élastase pancréatique is reported as 17%. Also, the “pourcentage de réactif disparu (méthode chimique)” value (“pourcentage de réactif disparu” below) in assay [2] was determined as 33%. Moreover, the “Accroissement de la résistance du collagène aux effets de la collagénase” value in assay [3] came out at 2%.
Regarding `C=CC1=C(C)c2cc3[nH]c(c(CCC(=O)OCC=C(C)CCCC(C)CCCC(C)CCCC(C)C)c3C)c3c4nc(cc5[nH]c(cc1n2)c(C)c5CC)C(C)=C4C(=O)C3C(=O)OC` (centres unmarked) [Phaéophytine a, didéhydrophaéophytine a], the “Effet d'inhibition de la collagénase” value with collagénase pancréatique (setting [4]) worked out at 0%; in the assay with collagénase pancréatique (setting [5]), 0%; in the assay on collagénase pancréatique (setting [6]) it was 0%; in the assay on collagénase pancréatique (setting [7]), 2%. Further, the activation at 50 µg/mL in assay [1] amounted to 4%. For the same compound, on élastase pancréatique, the “Inhibition de l'élastase pancréatique (diminution relative de l'activité de l'enzyme)” value amounted to 9%. Also, the “pourcentage de réactif disparu” value in assay [2] turned out to be 20%. The “Accroissement de la résistance du collagène aux effets de la collagénase” value in assay [3] stood at 0%.
Regarding didéhydrochlorophylle a, the “Effet d'inhibition de la collagénase” value in the assay on collagénase pancréatique (setting [4]) was found to be 2%; in the assay on collagénase pancréatique (setting [5]), 3%; in the assay with collagénase pancréatique (setting [6]) it was 3%; in the assay with collagénase pancréatique (setting [7]), 4%. For the same compound, in assay [1], the “augmentation de la synthèse protéique par rapport au témoin” value was 15%. The “Inhibition de l'élastase pancréatique (diminution relative de l'activité de l'enzyme)” value on élastase pancréatique is listed as 12%. Further, the “pourcentage de réactif disparu” value in assay [2] is 84%. In addition, the “Accroissement de la résistance du collagène aux effets de la collagénase” value in assay [3] worked out at 5%.
On to didéhydrochlorophyllide a, for which the “Effet d'inhibition de la collagénase” value was determined as 3% with collagénase pancréatique (setting [4]), 6% with collagénase pancréatique (setting [5]), 8% in the assay on collagénase pancréatique (setting [6]) and 9% in the assay with collagénase pancréatique (setting [7]). Also, the “augmentation de la synthèse protéique par rapport au témoin” value in assay [1] is listed as 23%. Also, the “Inhibition de l'élastase pancréatique (diminution relative de l'activité de l'enzyme)” value at élastase pancréatique came to 28%. In assay [2], the “pourcentage de réactif disparu” value is on record as 83%. Also, the “Accroissement de la résistance du collagène aux effets de la collagénase” value in assay [3] is reported as 3%.

Values taken from patent EP0651751B1, “FAMILY OF PORPHIN RING SUBSTANCES, METHOD OF OBTAINING THEM FROM CYANOPHYCEAE, AND APPLICATIONS AS COSMETICS AND AS THERAPEUTIC PRODUCTS” (GENERALE DE PREVENTION ET DE LOISIRS, priority 1992, dated 1994).
